Consider 56 molecules from US7442703B2, “Piperidine derivatives useful as CCR5 antagonists” (priority 2001, dated 2008).

A value given as a limit tells only on which side of the number the result lay.

As usually defined, the IC50 is the concentration that inhibits the measured activity by half.

The experiment concerns HIV-1 luciferase reporter virus in U87-CD4-CCR5 cells. Nature of the experiment: HIV Replication (luciferase) assay. Type of experiment: cell-based. Particulars: Human immunodeficiency virus 1, U87/CD4/CCR5, read-out: HIV Replication (luciferase) IC50. As to the method: Luciferase Replication Assay:
Plasmids encoding the full length genome of HIV-1 pNL-4-Luc with the gp120 V-3 loop replaced by the Bgl II fragment of HIV-1 ADA, YU-2 or HxB (ADA-Luc-FL, YU-2-Luc-FL and HxB-Luc-FL) are obtained from Dr. Susan Pontow (Washington University, St. Louis Mo.). Replication-competent luciferase reporter virus stocks are generated by transfection of plasmids into 293T cells using Superfect (Qiagen) or Mirus transfection reagents. Viral stocks are collected 48 hours following transfection and titered for luciferase production on U-87-CCR5 or CXCR4 cells. U87-CD4-CCR5 cells (10^4/well) are plated in 96-well cell culture plates and incubated overnight. Media is removed and replaced with 50 μl of fresh culture media (DMEM, 10% FCS) and 50 μl of compound diluted in culture medium. Cells are incubated with compound at 37° C. for 1 hour. The resultant supernatant is removed and replaced with 20 μl of media containing compound and infected with an equal volume of diluted or undiluted virus stock at 37° C. for 3-4 hours. The cells are washed once with DMEM, and 200 μl of media containing compound is added. The cultures are incubated for 3 days, the cells lysed in luciferase lysis buffer (Promega, Madison, Wis.) and transferred to Immulon plates (Dynex Technologies, Chantilly Va.). An equal volume of luciferase substrate (Promega, Madison Wis.) is added to lysates and the plates read immediately in a Wallac Luminometer. Fifty and ninety percent inhibitory concentrations are determined using GraphPad PRISM software.
Regarding `Cc1ncnc(C)c1C(=O)N1CCC(C)(N2CCC(N(Cc3ccccc3)C3CCN(S(=O)(=O)c4cccc(Cl)c4)CC3)CC2)CC1` [Compound 1], the IC50 is 0.1 nM.

`Cc1ncnc(C)c1C(=O)N1CCC(C)(N2CCC(N(Cc3ccccc3)C3CCN(S(C)(=O)=O)CC3)CC2)CC1` [Compound 2]: the IC50 amounted to 0.8 nM.

Consider `Cc1ncnc(C)c1C(=O)N1CCC(C)(N2CCC(N(CC3CC3)C3CCN(S(=O)(=O)c4cccc(Cl)c4)CC3)CC2)CC1` [Compound 3], for which the IC50 worked out at 32 nM.

For `Cc1ncnc(C)c1C(=O)N1CCC(C)(N2CCC(N(Cc3ccccc3)C3CCN(Cc4ccccc4)CC3)CC2)CC1` [Compound 4], the IC50 is 1.7 nM.

On to `Cc1ncnc(C)c1C(=O)N1CCC(C)(N2CCC(N(Cc3ccccc3)C3CCN(S(=O)(=O)c4ccccc4Cl)CC3)CC2)CC1` [Compound 5], for which the IC50 amounted to 2.1 nM.

For `Cc1ncnc(C)c1C(=O)N1CCC(C)(N2CCC(N(Cc3ccccc3)C3CCN(S(=O)(=O)c4ccc(Cl)cc4)CC3)CC2)CC1` [Compound 6], the IC50 was determined as 0.9 nM.

`Cc1ncnc(C)c1C(=O)N1CCC(C)(N2CCC(N(Cc3ccccc3)C3CCN(S(=O)(=O)C4CC4)CC3)CC2)CC1` [Compound 7]: the IC50 turned out to be 3 nM.

Take `Cc1ncnc(C)c1C(=O)N1CCC(C)(N2CCC(N(Cc3ccccc3)c3ccccc3)CC2)CC1` [Compound 9]: the IC50 came out at 3 nM.

Consider `Cc1ncnc(C)c1C(=O)N1CCC(C)(N2CCC(N(Cc3ccccc3)c3ccc(C(F)(F)F)cc3)CC2)CC1` [Compound 10], for which the IC50 amounted to 0.5 nM.

As for `Cc1ncnc(C)c1C(=O)N1CCC(C)(N2CCC(N(Cc3ccccc3)c3ccc(OC(F)(F)F)cc3)CC2)CC1` [Compound 11], the IC50 worked out at 0.2 nM.

Regarding `Cc1ncnc(C)c1C(=O)N1CCC(C)(N2CCC(N(Cc3ccccc3)c3ccc(Cl)cc3)CC2)CC1` [Compound 12], the IC50 was 0.2 nM.

`Cc1ncnc(C)c1C(=O)N1CCC(C)(N2CCC(N(Cc3ccccc3)c3ccc(C(F)(F)F)nc3)CC2)CC1` [Compound 13]: the IC50 amounted to 0.2 nM.

`Cc1ncnc(C)c1C(=O)N1CCC(C)(N2CCC(N(Cc3ccccc3)c3ccc(F)cc3)CC2)CC1` [Compound 14]: the IC50 is 0.1 nM.

As for `Cc1cc(-c2cc[n+]([O-])cc2)cc(C)c1C(=O)N1CCC(C)(N2CCC(N(Cc3ccccc3)c3ccc(C(F)(F)F)nc3)CC2)CC1` [Compound 16], the IC50 turned out to be 0.5 nM.

As for `Cc1ncnc(C)c1C(=O)N1CCC(C)(N2CCC(N(Cc3ccccc3)c3cccc(Br)c3)CC2)CC1` [Compound 17], the IC50 came to 0.1 nM.

Regarding `Cc1ncnc(C)c1C(=O)N1CCC(C)(N2CCC(N(Cc3ccccc3)c3cccc(Cl)c3)CC2)CC1` [Compound 18], the IC50 is 0.1 nM.

For the molecule `Cc1ncnc(C)c1C(=O)N1CCC(C)(N2CCC(N(Cc3ccc(F)cc3)c3cccc(Br)c3)CC2)CC1` [Compound 19], the IC50 came to 0.5 nM.

`Cc1ncnc(C)c1C(=O)N1CCC(C)(N2CCC(N(Cc3ccccc3)c3cccc(C(F)(F)F)c3)CC2)CC1` [Compound 20]: the IC50 was 0.2 nM.

Take `Cc1ncnc(C)c1C(=O)N1CCC(C)(N2CCC(N(Cc3ccccc3)c3ccc(C(C)(C)C)cc3)CC2)CC1` [Compound 21]: the IC50 came out at 1 nM.

As for `Cc1ncnc(C)c1C(=O)N1CCC(C)(N2CCC(N(Cc3ccccc3)c3ccc(C(C)C)cc3)CC2)CC1` [Compound 22], the IC50 was determined as 0.2 nM.

For the molecule `Cc1ncnc(C)c1C(=O)N1CCC(C)(N2CCC(N(Cc3ccccc3)c3ccc(I)cc3)CC2)CC1` [Compound 23], the IC50 came out at 0.1 nM.

As to `Cc1ncnc(C)c1C(=O)N1CCC(C)(N2CCC(N(Cc3ccccc3)c3cccc(OC(F)(F)F)c3)CC2)CC1` [Compound 24], the IC50 turned out to be 0.2 nM.

On to `Cc1ncnc(C)c1C(=O)N1CCC(C)(N2CCC(N(Cc3ccccc3)c3ccc(F)c(F)c3)CC2)CC1` [Compound 25], for which the IC50 was found to be 0.1 nM.

`Cc1ncnc(C)c1C(=O)N1CCC(C)(N2CCC(N(Cc3ccccc3)c3ccc(Cl)c(Cl)c3)CC2)CC1` [Compound 26]: the concentration for half-maximal inhibition (IC50) came out at 0.3 nM.

`Cc1ncnc(C)c1C(=O)N1CCC(C)(N2CCC(N(Cc3ccccc3)c3ccc(F)c(Cl)c3)CC2)CC1` [Compound 27]: the IC50 is 0.1 nM.

Consider `Cc1cc(N(Cc2ccccc2)C2CCN(C3(C)CCN(C(=O)c4c(C)ncnc4C)CC3)CC2)ccc1Br` [Compound 28], for which the IC50 is 0.22 nM.

For the molecule `COc1ccc(N(Cc2ccccc2)C2CCN(C3(C)CCN(C(=O)c4c(C)ncnc4C)CC3)CC2)cc1Cl` [Compound 29], the IC50 amounted to 0.1 nM.

As for `Cc1cc(N(c2ccccc2)C2CCN(C3(C)CCN(C(=O)c4c(C)ncnc4C)CC3)CC2)ccc1Br` [Compound 30], the IC50 amounted to 0.26 nM.

On to `Cc1ncnc(C)c1C(=O)N1CCC(C)(N2CCC(N(Cc3ccccc3)c3cccc(F)c3)CC2)CC1` [Compound 31], for which the IC50 was 0.44 nM.

As for `Cc1ncnc(C)c1C(=O)N1CCC(C)(N2CCC(N(Cc3ccccc3)c3cc(Cl)cc(Cl)c3)CC2)CC1` [Compound 32], the IC50 turned out to be 1.7 nM.

For the molecule `COc1cccc(N(Cc2ccccc2)C2CCN(C3(C)CCN(C(=O)c4c(C)ncnc4C)CC3)CC2)c1` [Compound 33], the IC50 was found to be 0.53 nM.

Turning to `Cc1ncnc(C)c1C(=O)N1CCC(C)(N2CCC(N(Cc3ccccc3)c3cc(C(F)(F)F)cc(C(F)(F)F)c3)CC2)CC1` [Compound 34], the concentration for half-maximal inhibition (IC50) came to 10 nM.

For the molecule `Cc1ncnc(C)c1C(=O)N1CCC(C)(N2CCC(N(Cc3ccccc3)c3ccc(Cl)c(C(F)(F)F)c3)CC2)CC1` [Compound 35], the concentration for half-maximal inhibition (IC50) amounted to 2 nM.

Turning to `Cc1ncnc(C)c1C(=O)N1CCC(C)(N2CCC(N(Cc3ccccc3)c3cc(F)cc(F)c3)CC2)CC1` [Compound 36], the IC50 stood at 0.1 nM.

Take `COc1ccc(N(Cc2ccccc2)C2CCN(C3(C)CCN(C(=O)c4c(C)ncnc4C)CC3)CC2)cc1` [Compound 37]: the half-maximal inhibitory concentration (IC50) amounted to 0.1 nM.

As to `Cc1ncnc(C)c1C(=O)N1CCC(C)(N2CCC(N(Cc3ccccc3)c3ccc(Br)c(C(F)(F)F)c3)CC2)CC1` [Compound 38], the IC50 was determined as 3 nM.

For the molecule `Cc1cccc(N(Cc2ccccc2)C2CCN(C3(C)CCN(C(=O)c4c(C)ncnc4C)CC3)CC2)c1` [Compound 39], the IC50 turned out to be 0.1 nM.

`CCOc1ccc(N(Cc2ccccc2)C2CCN(C3(C)CCN(C(=O)c4c(C)ncnc4C)CC3)CC2)cc1` [Compound 40]: the IC50 was < 0.1 nM.

Take `CCc1ccc(N(Cc2ccccc2)C2CCN(C3(C)CCN(C(=O)c4c(C)ncnc4C)CC3)CC2)cc1` [Compound 41]: the IC50 was < 0.1 nM.

As for `Cc1ncnc(C)c1C(=O)N1CCC(C)(N2CCC(N(Cc3ccccc3)c3ccccc3F)CC2)CC1` [Compound 42], the IC50 is 0.8 nM.

With `Cc1ncnc(C)c1C(=O)N1CCC(C)(N2CCC(N(Cc3ccccc3)c3ccc(Oc4ccccc4)cc3)CC2)CC1` [Compound 43], the IC50 is 2 nM.

As for `Cc1ncnc(C)c1C(=O)N1CCC(C)(N2CCC(N(Cc3ccccc3)c3cccc(C#N)c3)CC2)CC1` [Compound 44], the IC50 turned out to be 0.1 nM.

Consider `Cc1ncnc(C)c1C(=O)N1CCC(C)(N2CCC(N(Cc3ccccc3)c3ccc(N4CCOCC4)cc3)CC2)CC1` [Compound 45], for which the IC50 worked out at 0.9 nM.

For the molecule `Cc1ncnc(C)c1C(=O)N1CCC(C)(N2CCC(N(Cc3ccccc3)c3ccn(Cc4ccccc4)n3)CC2)CC1` [Compound 46], the IC50 came to 2 nM.

Regarding `Cc1ncnc(C)c1C(=O)N1CCC(C)(N2CCC(N(Cc3ccccc3)c3ccc(CCNS(C)(=O)=O)cc3)CC2)CC1` [Compound 47], the IC50 worked out at 0.05 nM.

Take `CC(=O)NCCc1ccc(N(Cc2ccccc2)C2CCN(C3(C)CCN(C(=O)c4c(C)ncnc4C)CC3)CC2)cc1` [Compound 49]: the IC50 amounted to 0.4 nM.

For the molecule `Cc1ncnc(C)c1C(=O)N1CCC(C)(N2CCC(N(Cc3ccccc3)c3ccc(Cl)c4cccnc34)CC2)CC1` [Compound 51], the IC50 was found to be 0.32 nM.

Take `Cc1ncnc(C)c1C(=O)N1CCC(C)(N2CCC(N(Cc3ccccc3)c3ccc(Br)c4cccnc34)CC2)CC1` [Compound 52]: the 50% inhibitory concentration (IC50) is 1 nM.

In the case of `Cc1ncnc(C)c1C(=O)N1CCC(C)(N2CCC(N(Cc3ccccc3)c3cccc4cccnc34)CC2)CC1` [Compound 53], the IC50 worked out at 0.6 nM.

For the molecule `C=CCOC(=O)NCCc1ccc(N(Cc2ccccc2)C2CCN(C3(C)CCN(C(=O)c4c(C)ncnc4C)CC3)CC2)cc1` [Compound 54], the IC50 was found to be 0.6 nM.

Consider `Cc1ncnc(C)c1C(=O)N1CCC(C)(N2CCC(N(Cc3ccccc3)c3ccc(CCN)cc3)CC2)CC1` [Compound 55], for which the IC50 was determined as 3.5 nM.

For the molecule `Cc1ncnc(C)c1C(=O)N1CCC(C)(N2CCC(N(Cc3ccccc3)c3ccc(CCNS(=O)(=O)C4CC4)cc3)CC2)CC1` [Compound 56], the IC50 is 0.2 nM.

`Cc1ncnc(C)c1C(=O)N1CCC(C)(N2CCC(N(Cc3ccccc3)c3ccc(CCNS(=O)(=O)CC(F)(F)F)cc3)CC2)CC1` [Compound 57]: the IC50 stood at 0.4 nM.

As to `C=CCOC(=O)c1ccc(N(Cc2ccccc2)C2CCN(C3(C)CCN(C(=O)c4c(C)ncnc4C)CC3)CC2)cc1` [Compound 58], the IC50 is 2 nM.

As to `Cc1ncnc(C)c1C(=O)N1CCC(C)(N2CCC(N(Cc3ccccc3)c3cccc(C(=O)O)c3)CC2)CC1` [Compound 59], the IC50 is 4 nM.

For `Cc1ncnc(C)c1C(=O)N1CCC(C)(N2CCC(N(Cc3ccccc3)c3ccc(C(=O)O)cc3)CC2)CC1` [Compound 60], the IC50 worked out at 27 nM.
